Consider four compounds from ChEMBL document CHEMBL4145628, “Strategy for Extending Half-life in Drug Design and Its Significance” (ACS Med Chem Lett, 2018).

Series [1] can be described thus: Effective half life in rat. The series is classed as ADME, organism-based. The following applies: in vivo, read-out: t1/2eff (converted).
A short description of series [2]: Plasma clearance in rat. The series is classed as ADME, organism-based.
The nature of series [3]: Fraction unbound in rat plasma. The series is classed as ADME, cell-free.
Series [4] is described as follows: Bioavailability in rat. Conditions: in vivo. The series is classed as ADME, organism-based.

For orientation: clearance means the rate of elimination divided by the concentration. Read a high clearance as a high capacity for elimination. What is called fraction unbound is the share of the substance not bound to proteins or other matrix. Low readings indicate extensive binding, high ones weak binding. What is called bioavailability is the share of a dose that reaches the circulation, judged against a reference dose that is usually intravenous. Consider `CC(C)Oc1cc2c(-c3cc(N4C[C@@H](C)O[C@@H](C)C4)ncn3)n[nH]c2cc1F`, for which, in series [1], the half-life is 56.4 min. For the same compound, in series [2], the clearance was found to be 65 mL/min/kg. In addition, the fraction unbound in series [3] was found to be 0.008. The bioavailability in series [4] was 20%.
On to `CC(C)Oc1ccc2[nH]nc(-c3cc(N4C[C@@H](C)O[C@@H](C)C4)ncn3)c2c1`, for which the half-life in series [1] is 34.2 min. For the same compound, the clearance in series [2] worked out at 64 mL/min/kg. Moreover, the fraction unbound in series [3] was determined as 0.017. The compound further had a bioavailability in series [4] of 25%.
The matching figures for `C[C@H]1CN(c2cc(-c3n[nH]c4ccc(OC5(C)CC5)cc34)ncn2)CCO1`: 31.2 min, 69 mL/min/kg, 0.019 and 32%.
`CC1(Oc2ccc3[nH]nc(-c4cc(N5CCO[C@@H](CO)C5)ncn4)c3c2)CC1`: in series [1], the half-life is 29.4 min. This compound also registered a clearance in series [2] of 78 mL/min/kg. This compound came in with a fraction unbound in series [3] of 0.051. The same compound displayed a bioavailability in series [4] of 36%.
